Common to all, as to assay type: cell-based
The target of data set [1] is T1, Voltage-gated inwardly rectifying potassium channel KCNH2 (Homo sapiens, UniProt Q12809). Put plainly: Inhibition of wild-type human ERG channel expressed in HEK293 cells assessed as blockade of potassium tail current by whole-cell patch clamp technique.
The target in data set [2] is Voltage-gated inwardly rectifying potassium channel KCNH2 (Homo sapiens, UniProt Q12809, V659A). Put plainly: Inhibition of human ERG V659A mutant channel expressed in HEK293 cells assessed decrease in blockade of potassium tail current at 1 mM by whole-cell patch clamp technique. The settings on record: hek293, 1000 µM. (In general: The patch-clamp technique gives a direct electrical read-out from membranes.)

For data set [3], the target named is T2, Voltage-gated inwardly rectifying potassium channel KCNH2 (Homo sapiens, UniProt Q12809, Y652A). Put plainly: Inhibition of human ERG Y652A mutant channel expressed in HEK293 cells assessed as blockade of potassium tail current by whole-cell patch clamp technique.
The test system of data set [4] is HEK293. Put plainly: Ratio IC50 for human ERG F656A mutant channel expressed in HEK293 cells to IC50 for wild-type human ERG channel expressed in HEK293 cells.
Data set [5] concerns the target T1, Voltage-gated inwardly rectifying potassium channel KCNH2. Put plainly: Inhibition of wild-type human ERG channel expressed in CHO cells by whole-cell patch clamp technique.
For data set [6], the system named is HEK293. Put plainly: Ratio IC50 for human ERG Y652A mutant channel expressed in HEK293 cells to IC50 for wild-type human ERG channel expressed in HEK293 cells.
Data set [7] has as its target Voltage-gated inwardly rectifying potassium channel KCNH2 (Homo sapiens, UniProt Q12809, F656A). Put plainly: Inhibition of human ERG F656A mutant channel expressed in HEK293 cells assessed as blockade of potassium tail current by whole-cell patch clamp technique.
The target in data set [8] is T2, Voltage-gated inwardly rectifying potassium channel KCNH2. Put plainly: Inhibition of human ERG Y652A mutant channel expressed in CHO cells by whole-cell patch clamp technique.

SMILES strings stand for the structures. pIC50: −log10 of the molar value. Counter-ions that a name gives are not always drawn.

In general, pIC50 refers to −log10 of the IC50, conventionally taken in molar units. In the case of `CCCCN1CCCCC1C(=O)Nc1c(C)cccc1C.Cl` (racemic) [BUPIVACAINE HYDROCHLORIDE], the pIC50 in data set [1] was 4.49; in data set [3] it was 3.58; in data set [5], 4.66; in data set [7], 3.06; in data set [8] it was 4.02. The “inhibition (INH)” value in data set [2] is reported as “Active”. Besides, the Ratio IC50 in data set [4] was 30; in data set [6], 10.
As for `CCCCN1CCCC[C@H]1C(=O)Nc1c(C)cccc1C` [LEVOBUPIVACAINE HYDROCHLORIDE], the pIC50 in data set [1] is 4.89; in data set [3], 3.56; in data set [5], 4.89; in data set [7], 2.99; in data set [8] it was 4.08.
With `CCCCN1CCCC[C@@H]1C(=O)Nc1c(C)cccc1C`, the negative-log IC50 (pIC50) was 4.08 in data set [1], 3.56 in data set [3] and 3.12 in data set [7].

For the origin of these results see ChEMBL document CHEMBL1817657, “Block of the hERG channel by bupivacaine: Electrophysiological and modeling insights towards stereochemical optimization” (Eur J Med Chem, 2011).
